# Assay results as given in the OPERA property sets (Mansouri et al. 2018).
# Where a SMILES comes first, the peptide text is derived from it.
row,SMILES,logP
1,CC(C)CC(NC(=O)C(N)C(C)C)C(=O)O (stereo not drawn) (H-Val-Leu-OH; configuration not given here),-2.07
2,CC1CC2C3CCC4=CC(=O)C=CC4(C)C3(F)C(O)CC2(C)C1(O)C(=O)COC(=O)CC(C)(C)C (stereo not drawn),4.3
3,COC(=O)C(C)=CC1C(C(=O)OCc2cccc(C#N)c2)C1(C)C (stereo not drawn),3.83
4,c1nc(N2CCCC2)c2[nH]cnc2n1,1.68
5,Cc1cccc(Cc2c[nH]cn2)c1,2.39
6,NC(Cc1ccc(O)cc1)C(=O)N1CCCC1C(=O)O (stereo not drawn) (H-Tyr-Pro-OH; configuration not given here),-2.03
7,CCOC(=O)CCCn1ccnc1[N+](=O)[O-],0.69
8,CCCOC(=O)C=COc1ccccc1,3.72
9,CC(C)=CCCC(C)=CCCC(C)(C)O,4.54
10,Clc1ccc(CNc2ncnc3nc[nH]c23)cc1,2.9
11,COCc1c(O)c(=O)cc(C)n1C,-0.42
12,NC(Cc1c[nH]c2ccccc12)C(=O)NC(Cc1ccccc1)C(=O)O (stereo not drawn),-0.47
13,Cc1oc2cc(C)c3ccc(=O)oc3c2c1C,3.36
14,CC(=NNC(=O)c1ccncc1)c1cnccn1,1.2
15,O=C(NC1CCCCCC1)NS(=O)(=O)c1cnccc1NC1CCCCC1,4.62
16,Cn1cc(-c2ccc(Cl)cc2)c(N2CCOCC2)c1,4.2
17,CCC(C)C(NC(=O)C(N)CC(C)C)C(=O)NC(C(=O)O)C(C)O (stereo not drawn) (H-Leu-Ile-Thr-OH; configuration not given here),-2.14
18,CC(C)(C)Nc1nc(N)nc(Cl)n1,1.94
19,CCCCOc1ccc(NC(=O)OCCN2CCCCC2)cc1,4.69
20,O=C(CCCN=C=S)c1cccnc1,1.79
21,COC(=O)c1cc2cccc3ccc4cccc1c4c32,4.73
22,O=c1cc(CBr)oc(Br)c1O,1.27
23,CC1(C)CC(=O)C=C(N2CCCCC2)C1,2.83
24,CCC1OC(Cn2cncn2)(c2ccc(Cl)cc2Cl)OC1C (stereo not drawn),3.41

row,SMILES,logP
1,COc1ccc(SC)cc1CNC1CCCNC1c1ccccc1 (stereo not drawn),3.7
2,CCOP(=O)(Oc1ccc(C#N)cc1)c1ccccc1 (stereo not drawn),2.44
3,COc1ccc(C2=NC(C)(C(=O)O)CS2)c(O)c1 (stereo not drawn),1.7
4,COC(=O)C(C)NP(=O)(OCC1C=CC(n2cc(C)c(=O)[nH]c2=O)O1)Oc1ccc(OC(F)(F)F)cc1 (stereo not drawn),1.86
5,CCOC(=O)C1=C(C)NC(C)=C(C(=O)OC)C1c1ccccc1OCOC (stereo not drawn),3.78
6,CC(C)=CCNc1ncnc2nc[nH]c12,2.2
7,Clc1ccc(N2CCN(CCn3nnc4ccccc43)CC2)cc1,3.4
8,O=C(NCC(F)(F)F)NS(=O)(=O)c1cnccc1NC1CCCCCC1,3.85
9,O=C1CCC(c2ccc(-n3ccnc3)cc2)=NN1,0.96
10,CCCc1c(O)c(=O)cc(C)n1C,0.4
11,CC(C)(C)[N+]([O-])=Cc1ccc(O)cc1,0.6
12,CCC(CC)(C(=O)OC)S(=O)(=O)c1ccc([N+](=O)[O-])cc1,2.24
13,CC(C)NC(=S)NS(=O)(=O)c1cnccc1NC1CCCCCC1,3.86
14,CCNC(=NC#N)NS(=O)(=O)c1cnccc1NC1CCCCCC1,1.53
15,Cc1c(O)c(=O)ccn1CCCOC(=O)c1ccccc1,1.25
16,O=[N+]([O-])c1nccn1CC(O)C(O)CF (stereo not drawn),-0.77
17,CN1CCc2cccc(Cl)c2CC1,2.92
18,CC(C)OC(=O)C(=Cc1ccccc1)S(=O)(=O)c1ccc([N+](=O)[O-])cc1,3.62
19,Cc1ccccc1-n1nnnc1N,0.93
20,Cc1cccc(OCC2CN=C(N)O2)c1 (stereo not drawn),1.75
21,COc1ccc(-c2ccoc2)cc1CNC1CCCNC1c1ccccc1 (stereo not drawn),4.2
22,COC1=C(Cl)C(=O)c2ccccc2C1=O,2.15
23,Cc1[nH]cnc1CSCCNc1ncc(Cc2cccc3c2OCO3)c(=O)n1C,2.51
24,COc1ccc(CCNCC(O)COc2ccc(-c3nc(C)c[nH]3)cc2Br)cc1OC (stereo not drawn),3.8

row,SMILES,logP
1,CCc1cccc(Nc2ccncc2S(=O)(=O)NC(=NC#N)NC(C)C)c1,2.4
2,O=CC(=C(Cl)C(=O)O)C(Cl)Cl,1.13
3,Cc1oc2cc3oc(=O)cc(C)c3cc2c1C,3.22
4,NC(Cc1ccccc1)C(=O)NC(Cc1ccccc1)C(=O)NCC(=O)NC(Cc1ccccc1)C(=O)O (stereo not drawn) (H-FFGF-OH; configuration not given here),0.17
5,CCOc1cc2ncnc(Nc3cccc(F)c3)c2cc1OCC,3.71
6,OC(CNC1CCCC1)CON=C(C1CC1)C1CC1 (stereo not drawn),2.46
7,CON(C)C(=O)Nc1cccc(C#N)c1,1.33
8,COC(=O)c1cc2ccc3cccc4ccc(c1)c2c34,4.85
9,CCC1(C(=O)NC(C)c2ccc(Cl)cc2)C(C)C1(Cl)Cl (stereo not drawn),4.23
10,Cc1cc(=O)[nH]nc1/C=C/c1ccc(-n2cnc3c2CCCC3)cc1,3.1
11,CC1=CCC(C)(C)C=CCC2(C)OC2CC1 (stereo not drawn),4.45
12,O=C1Oc2ccccc2CN1CCO[N+](=O)[O-],1.82
13,COC(=O)C(C)=CC1C(C(=O)OCc2cccc(Oc3ccccc3)c2)C1(C)C (stereo not drawn),6.48
14,CC(=O)C(=Cc1cc(O)c(O)c([N+](=O)[O-])c1)C(C)=O,1.21
15,CC1(C)SC2C(NC(=O)C(c3ccccc3)S(=O)(=O)O)C(=O)N2C1C(=O)O (stereo not drawn),-0.22
16,COC1CC(OC2C(O)CC(OC3CCC4(C)C(CCC5C4CCC4(C)C(C6=CC(=O)OC6)CCC54O)C3)OC2C)OC(C)C1OC1CC(O)C(O)C(C)O1 (stereo not drawn),3.11
17,Cc1nc2ccccc2c(=O)n1CCC(=O)O,0.93
18,CCC(C)C(N)C(=O)NC(C(=O)NC(C(=O)O)C(C)O)C(C)CC (stereo not drawn) (H-Ile-Ile-Thr-OH; configuration not given here),-2.23
19,COC(=O)C=CCn1ccnc1[N+](=O)[O-],0.32
20,COC(=O)C(C)S(=O)(=O)c1ccc([N+](=O)[O-])cc1 (stereo not drawn),1.06
21,CCCCNC(=N)NC(=O)c1ccc(Cl)cc1,3.08
22,COc1cc(-n2c(C(F)(F)F)nn(C)c2=S)cc(OC)c1OC,2.04
23,OCCCNc1ncnc2c1ncn2C1OC(CO)C(O)C1O (stereo not drawn),-0.86
24,COC(=O)C(C)NP(=O)(OCC1C=CC(n2cc(C)c(=O)[nH]c2=O)O1)Oc1ccc(C)cc1 (stereo not drawn),1.19

row,SMILES,logP
1,Cc1ccc2c(c1)COP(=O)(OCC1C=CC(n3cc(C)c(=O)[nH]c3=O)O1)O2 (stereo not drawn),0.73
2,COC(=O)C(C)NP(=O)(OCC1C=CC(n2cc(C)c(=O)[nH]c2=O)O1)Oc1ccccc1Cl (stereo not drawn),1.37
3,CC(=O)OCOC(=O)N(C)N=Nc1ccc(Br)cc1,3.64
4,COc1ccc(C2=NC(C(=O)O)CS2)c(O)c1OC (stereo not drawn),1.1
5,c1ccc(CN2CCN(CCCOn3nnc4ccccc43)CC2)cc1,4
6,CCOC(=O)C1=C(C)NC(C)=C(C(=O)OC)C1c1cc(OC)c(O)c(OC)c1 (stereo not drawn),2.83
7,CC(=O)NCCCCCN(O)C(=O)CCC(=O)NCCCCCN(O)C(=O)CCC(=O)NCCCCCN(O)C(C)=O,-0.03
8,CCN(CC)NC(=O)NS(=O)(=O)c1ccc(C)cc1,0.47
9,Nc1nc(N)c2c([N+](=O)[O-])cccc2n1,1.19
10,CCC(C)C(NC(=O)CNC(=O)C1CCCN1C(=O)C(N)Cc1ccc(O)cc1)C(=O)O (stereo not drawn) (H-YPGI-OH; configuration not given here),-1.65
11,CC(C)CC(N)C(=O)NC(CC(C)C)C(=O)NC(CC(C)C)C(=O)O (stereo not drawn) (H-Leu-Leu-Leu-OH; configuration not given here),-0.94
12,CCC(C)C(NC(=O)C(CC(C)C)NC(=O)C(N)CO)C(=O)O (stereo not drawn) (H-Ser-Leu-Ile-OH; configuration not given here),-1.99
13,NS(=O)(=O)c1ccc(Cn2cnc3ccccc32)cc1,1.04
14,O=C(O)CCCCON=C(c1ccccc1)c1ccncn1,2.27
15,c1nc(N2CCCCC2)c2[nH]cnc2n1,2.11
16,Nc1nc(O)nc(Nc2ccccc2)n1,1.9
17,COC(=O)C(C)NP(=O)(OCC1C=CC(n2cc(C)c(=O)[nH]c2=O)O1)Oc1cccc(Br)c1 (stereo not drawn),1.64
18,O=C(Nc1ccccc1C(=O)O)c1ccccc1,3.54
19,CCCC(=NOCC)C1=C(O)CC(C)(C)OC1=O,2.56
20,CC(=O)c1c2ccccc2cc2ccccc12,3.6
21,CSCCC(NC(=O)C(Cc1ccccc1)NC(=O)CNC(=O)C(C)NC(=O)C(N)Cc1ccc(O)cc1)C(=O)O (stereo not drawn),-0.59
22,Nc1ccno1,-0.47
23,COc1ccc(C2Cc3c(cccc3C(F)(F)F)N(CCN(C)C)C(=O)C2Cc2ccccc2)cc1 (stereo not drawn),7.2
24,O=C1NC(Cc2c[nH]c3ccccc23)C(=O)NC1Cc1c[nH]c2ccccc12 (stereo not drawn),2.04

row,SMILES,logP
1,NC(N)=NCCCNC(=O)[C@@H]1CCCCN1C(=O)[C@@H](CC1CCCCC1)NCC(=O)O,-0.1
2,CC(C)OC(=O)C1(S(=O)(=O)c2ccc(Cl)cc2)CCCCC1,3.49
3,CC(C)CC(NC(=O)C(N)Cc1ccc(O)cc1)C(=O)O (stereo not drawn) (H-Tyr-Leu-OH; configuration not given here),-1.75
4,CCCNC(=O)CNC(=O)C=[N+]=[N-],-0.24
5,Cc1[nH]c2ccccc2c1Cc1n[nH]c(=S)n1-c1ccccc1,2.55
6,CCNc1nc(O)nc(NC(C)(C)C)n1,3.53
7,Cc1ccccc1C=[N+]([O-])C(C)(C)C,1.5
8,c1ccc(Cn2cnc3ccccc32)cc1,2.91
9,CON=C(C(=O)NC1C(=O)N2C(C(=O)OCc3oc(=O)oc3C)=CCSC12)c1csc(N)n1 (stereo not drawn),0.17
10,COC(=O)C(C)NP(=O)(OCC1C=CC(n2cc(C)c(=O)[nH]c2=O)O1)Oc1cccc(F)c1 (stereo not drawn),1.08
11,NC(Cc1ccccc1)C(=O)NC(Cc1ccccc1)C(=O)NC(Cc1ccccc1)C(=O)O (stereo not drawn) (H-Phe-Phe-Phe-OH; configuration not given here),-0.02
12,Cc1nc2ccccc2c(=O)n1CC(=O)NCc1ccco1,1.24
13,O=C1C=C(N2CCCCCC2)CN1c1ccc(Cl)cc1,3.4
14,Cc1cccc(C)c1OCC1CN=C(N)O1 (stereo not drawn),2
15,Cc1nc2c3c(c(C(N)=O)cn2c1C)CCC(c1ccccc1)O3 (stereo not drawn),3.5
16,CC(C)CC(NC(=O)C(N)Cc1c[nH]c2ccccc12)C(=O)O (stereo not drawn),-0.73
17,CCCCCCCNc1ncnc2nc[nH]c12,3.71
18,O=C(O)CCCCCON=C(c1cccc(C(F)(F)F)c1)c1cccnn1,3.22
19,NC1CCN(c2nc3c(cc2F)c(=O)c(C(=O)O)cn3-c2ccc(F)cc2F)C1 (stereo not drawn),-0.46
20,O=C(OC1Cc2c(O)cc(O)cc2OC1c1ccc(O)c(O)c1)c1ccccc1 (stereo not drawn),3.44
21,COC(=O)C1=C(C)NC(C)=C(P2(=O)OCCCO2)C1c1ccccc1[N+](=O)[O-] (stereo not drawn),1.3
22,c1cc2cc3ccc4c(c3nc2c2c1NCOC2)COCN4,2.17
